Laboratory results taken from BigSolDB 2.1.

O=C(c1ccccc1)c1ccc(Cl)cc1
solubility (mole fraction)
Settings	278.15 K	283.15 K	288.15 K	293.15 K	298.15 K	303.15 K	308.15 K	313.15 K	318.15 K	323.15 K
in acetone	0.0863	0.0934	0.116	0.146	0.181	0.224	0.277	0.342	0.454	0.615
in acetonitrile	0.0216	0.0258	0.0352	0.0438	0.0625	0.0858	0.131	0.19	0.307	0.616
in ethanol	0.00817	0.0103	0.0124	0.0151	0.0195	0.0239	0.0318	0.043	0.06	0.0856
in ethyl acetate	0.114	0.118	0.138	0.167	0.203	0.24	0.294	0.351	0.43	0.534
in isobutanol	0.0102	0.0113	0.0138	0.0173	0.0225	0.0305	0.0408	0.0549	0.0821	0.123
in isopropanol	0.00704	0.00886	0.0118	0.0153	0.0187	0.0223	0.0288	0.0398	0.0617	0.0896
in methanol	0.00549	0.00622	0.00802	0.00943	0.012	0.0149	0.0203	0.027	0.0384	0.0594
in methyl acetate	0.0971	0.109	0.134	0.164	0.196	0.239	0.289	0.354	0.417	0.494
in n-butanol	0.0271	0.0304	0.0347	0.0394	0.0436	0.0478	0.0531	0.0677	0.0993	0.211
in n-butyl acetate	0.133	0.142	0.156	0.182	0.212	0.248	0.285	0.329	0.383	0.454
in n-propanol	0.0111	0.0128	0.0163	0.0205	0.0247	0.0325	0.0424	0.0571	0.0829	0.135
